Laboratory results: ChEMBL document CHEMBL5335774 (Eur J Med Chem, 2023)

Key:
[1] = molecular target: T1, Replicase polyprotein 1ab (Severe acute respiratory syndrome coronavirus 2, UniProt P0DTD1)
[2] = molecular target: T1, Replicase polyprotein 1ab; remark: listed apart in the source
[3] = molecular target: Replicase polyprotein 1a (Severe acute respiratory syndrome-related coronavirus, UniProt P0C6U8)
[4] = test system: Vero; assay: Cytotoxicity against green monkey Vero cells; format: toxicity, cell-based; settings: chlorocebus sabaeus
[5] = molecular target: Procathepsin L (Homo sapiens, UniProt P07711)
Procathepsin L, sequence (P07711 whole entry): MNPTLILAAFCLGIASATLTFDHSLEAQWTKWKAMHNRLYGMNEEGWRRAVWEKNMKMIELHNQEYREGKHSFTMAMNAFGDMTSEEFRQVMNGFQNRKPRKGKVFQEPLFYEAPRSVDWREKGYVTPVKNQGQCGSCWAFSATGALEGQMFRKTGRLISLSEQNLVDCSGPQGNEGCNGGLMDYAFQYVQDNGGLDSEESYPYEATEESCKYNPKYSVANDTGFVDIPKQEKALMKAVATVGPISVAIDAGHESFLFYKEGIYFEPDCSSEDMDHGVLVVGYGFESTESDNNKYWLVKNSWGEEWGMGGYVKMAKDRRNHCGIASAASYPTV

[6] = test system: SARS-CoV-2; assay: microbe, parasite or virus in culture; settings: Severe acute respiratory syndrome coronavirus 2, Vero, 16 h
[7] = molecular target: Replicase polyprotein 1ab (Severe acute respiratory syndrome coronavirus 2) (UniProt P0DTD1); settings: dose 40.0 µM, time 30.0 min
[8] = molecular target: Replicase polyprotein 1ab (Severe acute respiratory syndrome coronavirus 2) (UniProt P0DTD1); settings: time 70.0 min
[9] = molecular target: T1, Replicase polyprotein 1ab; remark: listed apart in the source

**Q.** Which IC50 ([1]; read-out: IC50) does the source give for `CCSC(=S)NCc1cccnc1` here?
**A.** 178 nM

**Q.** What about the IC50 ([2]; read-out: IC50) of the same molecule?
**A.** 22400 nM

**Q.** For `S=C([S-])NCc1cccnc1.[K+]`, which IC50 ([1]; read-out: pIC50 (converted)) is on record?
**A.** 26.9 nM

**Q.** And the IC50 [3]?
**A.** 165 nM

**Q.** And the IC50 ([2]; read-out: IC50)?
**A.** 1360 nM

**Q.** What about the Activity [4] of the same molecule?
**A.** Toxic

**Q.** What about the IC50 ([5]; read-out: IC50) of the same molecule?
**A.** 42800 nM

**Q.** `CC(C)C[C@H](NC(=O)OCc1ccccc1)C(=O)N[C@@H](CC1CCNC1=O)C(O)S(=O)(=O)O` (some centres not stated) was tested. Which IC50 ([5]; read-out: pIC50 (converted)) did it give?
**A.** 0.692 nM

**Q.** For `Cc1cccc2nc(CNC(=S)NCc3cccnc3)cn12`, which IC50 ([1]; read-out: IC50) is on record?
**A.** 35000 nM

**Q.** What about the pIC50 [2] of the same molecule?
**A.** < 4

**Q.** What about the IC50 ([2]; read-out: IC50) of the same molecule?
**A.** > 100000 nM

**Q.** Which results are given for `S=C(NCc1cccnc1)SCc1ccccc1`?
**A.** IC50 ([1]; read-out: IC50): 23 nM; IC50 ([2]; read-out: IC50): 9360 nM

**Q.** Which results are given for `Cc1cccc2nc(CSC(=S)NCc3cccnc3)cn12`?
**A.** IC50 [6]: 1060 nM; IC50 ([1]; read-out: IC50): 21 nM; IC50 [3]: 383 nM; ΔTm [7]: 14.2 °C; inhibition [8]: 80%; IC50 ([2]; read-out: IC50): 1460 nM; IC50 ([2]; read-out: pIC50 (converted)): 1410 nM; Activity [4]: Non-Toxic; IC50 [9]: 8 nM; IC50 ([5]; read-out: IC50): 122000 nM

**Q.** What does the source list for `S=C(NCc1cccnc1)OCc1ccccc1`?
**A.** IC50 ([1]; read-out: IC50): > 100000 nM; IC50 ([1]; read-out: pIC50 (converted)): > 100000 nM; pIC50 [2]: < 4; IC50 ([2]; read-out: IC50): > 100000 nM
